Reference: patent US12414948B2, “Methods” (INTRA-CELLULAR THERAPIES, INC., priority 2022, dated 2025)

Tests used:
[1] = system: serum cytokines IL-1b, IL-6, TNF-alpha, IL-10; assay: Serum cytokine protein (Multiplex MSD V-Plex) after LPS and lumateperone; assay type: in vivo, mouse; conditions: 2 h
Procedure: All other reagents are obtained in the highest purity available from Sigma-Aldrich (St. Louis, MO) unless otherwise noted. […] Some rodents are given a cotreatment with a subcutaneous (SC) injection of lipopolysaccharide (LPS, 500 μg/kg; Sigma-Aldrich, ref #0127:B8) diluted in 0.9% injectable saline while control group animals receive injections of all vehicles matching the experimental conditions. […] On day 2, either no injection for naïve rats, or saline or LPS is injected (1 mg/kg, SC).
Tissue Collection. […] Rats are euthanized 18 hours after LPS injection for sample collection. Hippocampi from mice and rats are rapidly dissected under RNAse-free conditions and placed in 1.5 mL Eppendorf tubes. When appropriate, samples are snap frozen in liquid nitrogen prior to storage at −80° C. until further analysis. Trunk blood is collected from mice into serum collection tubes, allowed to clot at room temperature for 1 hour, then centrifuged at 1,500 g for 10 minutes at 4° C.
Multiplex Assays. In mouse serum, protein levels of IL-1b, IL-6, IL-10 and TNF-alpha are measured using a V-Plex Meso Scale Discovery (MSD) Multiplex spot assay Mouse Neuroinflammation 1 panel (Meso Scale Diagnostics, Rockville, MD). All samples are run in duplicates or triplicates according to manufacturer instructions and analyzed with MSD Discovery Workbench software (Meso Scale Diagnostics).
An additional experimental group receiving an injection with lumateperone alone is included as an additional control. Protein concentration is measured using the Multiplex MSD assay V-Plex technology. Results are expressed in pg/mL, except for IL-6, which is measured in ng/mL.

[2] = system: hippocampal gene expression (NanoString gene sets and genes); assay: NanoString nCounter hippocampal gene expression after co-injection of LPS and lumateperone; assay type: in vivo, mouse
From the text: NanoString. The mouse neuropathology panel includes 770 genes associated with themes of neurotransmission, neuron-glia interaction, neuroplasticity, cell structure integrity, neuroinflammation and metabolism. A total of 13 housekeeping genes are used for expression normalization (Aars: NM_146217.4, Asb10: NM_080444.4, Ccdc127: NM_024201.3, Cnot10: NM_153585.5, Csnk2a2: NM_009974.3, Fam104a: NM_138598.5, Gusb: NM_010368.1, Lars: NM_134137.2, Mto1: NM_026658.2, Supt7l: NM_028150.1, Tada2b: NM_001170454.1:3224, Tbp: NM_013684.3:70, and Xpnpep1: NM_133216.3:1826, see FIG. 1-1). Hippocampal RNA is extracted using the Qiagen microkit (Qiagen) and is evaluated by the Agilent 2100 Bioanalyzer (Agilent Technologies, Santa Clara, CA) to assess RNA concentration, quality, and integrity. Sample preparation, hybridization, and detection (100 ng per sample, n=5-6 per group) are carried out according to NanoString manufacturer's instructions (NanoString Technologies, Seattle, WA). The normalized data are transformed to log 2 score to express the fold change. NanoString results (raw and normalized counts) are derived from RCC files using the nSolver software (version 2.6; NanoString Technologies). A complementary gene software analysis tool, ROSALIND® Advanced Analysis Software (NanoString Technologies), is also used, which provides comprehensive free cloud-based data analysis for nCounter data by directly analyzing raw RCC files generated from NanoString. Data are imported into ROSALIND® Advanced Analysis Software for normalization, calculation of fold-changes, P values, identification of enriched pathways, and heatmaps.
It is calculated similarly to a undirected global significance score, but it takes into account the sign of the t-statistic. Scores were calculated by nSolver software, using the control group as a reference.

Sprague-Dawley rats = assay: Open Field Test (OFT), locomotion; assay type: in vivo, rat; conditions: for Open field track length: rats given LPS 1 mg/kg SC, label LPS = LPS + Vehicle, label Luma = Luma 1 mg/kg IP before and after LPS, text: open field track length in meters
Procedure: Behavioral Evaluation. All behavioral tests are performed in the morning with adult male Sprague-Dawley rats (n=9-11 per group for the experiments with LPS, and n=13-14 per group for the naïve rats).
Open Field Test (OFT). Rats are placed in an open field box (76.5×76.5×40 cm^3) under dim lighting and locomotor activity over a 10 minute period is measured using ANY-Maze Software (Stoelting Co., Wood Dale, IL).
Locomotion in an open field (track length in meters) is also measured as a control. As shown in the following table, locomotor activity is […] regardless of the group: […]

[3] = LPS 500 μg/kg-challenged mice, label LPS = LPS alone, label Luma = LPS + Luma 3 mg/kg IP
[4] = LPS 500 μg/kg-challenged mice, hippocampus 2 h, label LPS = LPS alone, label Luma = LPS + Luma 3 mg/kg, vs control group
[5] = mice, hippocampus 2 h, Luma 3 mg/kg alone (no LPS), vs control group

lipopolysaccharide [LPS, reference compound]
Serum cytokine concentration IL-1b [1, 3]: 6.27 pg/mL
Serum cytokine concentration IL-6 [1, 3]: 14.52 ng/mL
Serum cytokine concentration IL-10 [1, 3]: 980.4 pg/mL
Serum cytokine concentration TNF-alpha [1, 3]: 335.3 pg/mL
Directed global significance score: Adaptive immune response [2, 4]: 0.571
Directed global significance score: Angiogenesis [2, 4]: −0.144
Directed global significance score: Apoptosis [2, 4]: 0.915
Directed global significance score: Astrocyte function [2, 4]: 1.391
Directed global significance score: Autophagy [2, 4]: 0.588
Directed global significance score: Carbohydrate metabolism [2, 4]: 0.507
Directed global significance score: Cell cycle [2, 4]: −0.148
Directed global significance score: Cellular stress [2, 4]: 0.499
Directed global significance score: Cytokine signaling [2, 4]: 0.993
Directed global significance score: DNA damage [2, 4]: 0.578
Directed global significance score: Epigenetic regulation [2, 4]: 0.312
Directed global significance score: Growth factor signaling [2, 4]: 0.76
Directed global significance score: Inflammatory signaling [2, 4]: 1.086
Directed global significance score: Innate immune response [2, 4]: 0.939
Directed global significance score: Insulin signaling [2, 4]: 0.28
Directed global significance score: Lipid metabolism [2, 4]: −0.192
Directed global significance score: Matrix remodeling [2, 4]: −0.583
Directed global significance score: Microglia function [2, 4]: 0.377
Directed global significance score: Neurons and neurotransmission [2, 4]: −0.422
Directed global significance score: Notch [2, 4]: 0.876
Directed global significance score: Oligodendrocyte function [2, 4]: 0.181
Directed global significance score: Wnt [2, 4]: −0.476
Open field track length (Sprague-Dawley rats): 12.81

CN1CCN2c3c(cccc31)[C@@H]1CN(CCCC(=O)c3ccc(F)cc3)CC[C@@H]12 [Luma, lumateperone]
Serum cytokine concentration IL-6 ([1]; mice, Luma 3 mg/kg IP alone (no LPS)): 0.09 ng/mL
Directed global significance score: DNA damage [2, 4]: 0.042
Directed global significance score: Inflammatory signaling [2, 4]: −0.93
Directed global significance score: Lipid metabolism [2, 4]: 0.89
Directed global significance score: Oligodendrocyte function [2, 4]: 0.48
Genes that promote inflammation (e.g., Osmr, Tnfrsf1a, Tnfrsf11b, Prl, Il1r1), cytokine-specific gene expression ([2]; ROSALIND analysis, LPS+Luma versus LPS alone, filter P<0.04999, mice hippocampus): significantly downregulates
Directed global significance score: Adaptive immune response [2, 5]: 0.344
Directed global significance score: Angiogenesis [2, 5]: 0.616
Directed global significance score: Apoptosis [2, 5]: −0.442
Directed global significance score: Astrocyte function [2, 5]: −0.837
Directed global significance score: Autophagy [2, 5]: −0.731
Directed global significance score: Carbohydrate metabolism [2, 5]: −0.837
Directed global significance score: Cell cycle [2, 5]: −0.75
Directed global significance score: Cellular stress [2, 5]: −0.432
Directed global significance score: Cytokine signaling [2, 5]: −0.543
Directed global significance score: DNA damage [2, 5]: −0.614
Directed global significance score: Epigenetic regulation [2, 5]: 0.729
Directed global significance score: Growth factor signaling [2, 5]: 0.226
Directed global significance score: Inflammatory signaling [2, 5]: −1.032
Directed global significance score: Innate immune response [2, 5]: −0.611
Directed global significance score: Insulin signaling [2, 5]: 0.858
Directed global significance score: Lipid metabolism [2, 5]: −0.818
Directed global significance score: Matrix remodeling [2, 5]: −0.4
Directed global significance score: Microglia function [2, 5]: 0.466
Directed global significance score: Notch [2, 5]: 0.834
Directed global significance score: Oligodendrocyte function [2, 5]: −1.176
Directed global significance score: Wnt [2, 5]: 0.9
OFT locomotion (Sprague-Dawley rats; naïve rats, Luma 1 mg/kg IP on days 1 and 3, 10 minutes): 32.8 ± 10.2 m
Open field track length (Sprague-Dawley rats): 12.27
